# Laboratory results taken from patent US20180303101A1, “METHOD OF IMPROVING GRASS QUALITY” (priority 2004, published 2018).
# Assays:
# Format in all cases: in vivo
# [1] = test system: Penncross creeping bentgrass; assay: Canopy net photosynthetic rate at high temperature treatment (Example 1)
# Source text: (§1) The following test methods were used to compare the effectiveness of a phthalocyanine composition according to the invention with known compositions. The following compositions were used in the experiments: Pigment Green 7 obtained from Sun Chemical Corporation as the water-dispersible product SUN T-64-1660 (containing 45 to 55 wt. % of Pigment Green 7) was used alone. A mixture of Pigment Green 7 and fosetyl-al was used as the commercially available product Chipco® Signature™ fungicide from Bayer Environmental Science, Montvale, N.J. The compound fosetyl-al was used as Chipco® Aliette® WDG fungicide available from Bayer Environmental Science, Montvale N.J.
# Seeds of “Penncross” creeping bentgrass were sown in polyvinyl chloride (PVC) tubes (10 cm in diameter and 20 cm in length) filled with coarse sand. Plants were kept in a growth chamber for 90 days before treatment stated to allow root and canopy establishment. The daily temperature in the growth chamber was 20/16° C., the photosynthetic photon flux density was 400 μmol m−2 s−1, and the photoperiod was 12 hours/day. […]
# Canopy net photosynthetic rate was measured as described below using a Li-6400 portable photosynthesis system (available from LiCor, Lincoln, NB).
# [2] = test system: Penncross creeping bentgrass; assay: Carotenoids content at high temperature treatment (Example 1); conditions: plants with or without pretreatment
# Source text: as §1
# Seeds of “Penncross” creeping bentgrass were sown in polyvinyl chloride (PVC) tubes (10 cm in diameter and 20 cm in length) filled with coarse sand. […]
# Chlorophyll and carotenoids were extracted by soaking 50 mg fresh shoots in 20 ml dimethyl sulfoxide (DMSO) in the dark for 72 hours. Absorbance of each extractant at 663 nm, 645 nm, and 470 nm was used to determine chlorophyll content using the formula of Arnon (1949) and carotenoids content using the formula of Lichtenthaler and Wellburn (1983) Canopy photochemical efficiency was estimated by measuring chlorophyll fluorescence (Fv/Fm) using plant photosynthesis efficiency analyzer (available from ADC Bioscientific Limited, Herts, England).
# [3] = test system: Penncross creeping bentgrass; assay: Shoot growth rate in canopy height at high temperature treatment (Example 1); conditions: plants with and without pretreatment
# Source text: as §1
# (§2) Seeds of “Penncross” creeping bentgrass were sown in polyvinyl chloride (PVC) tubes (10 cm in diameter and 20 cm in length) filled with coarse sand. Plants were kept in a growth chamber for 90 days before treatment stated to allow root and canopy establishment. The daily temperature in the growth chamber was 20/16° C., the photosynthetic photon flux density was 400 μmol m−2 s−1, and the photoperiod was 12 hours/day. Turf was mowed twice weekly at 4 mm with scissors, irrigated every other day until there was free drainage from the bottom of tubes, and fertilized weekly with 40 ml full-strength Hoagland's nutrient solution (Hoagland and Arnon, 1950). Insecticide was applied to kill whitefly when necessary. […]
# [4] = test system: Penncross creeping bentgrass; assay: Final root and canopy biomass at high temperature treatment (Example 1); conditions: plants with and without pretreatment, end of experiment
# Source text: as §1, §2
# [5] = test system: creeping bentgrass (variety Penncross) turf; assay: Bentgrass color rating after foliar spray (Example 3); conditions: 6 weeks after treatment; Aliette 4 oz, Signature 4 and 8 oz, Pigment 6.8 and 13.6 g per 1000 sq. ft.; analysis of variance
# Protocol: Fosetyl-al (in the form of Aliette brand fungicide), fosetyl-al plus Pigment Green 7 (in the form of Signature brand Aliette fungicide), and Pigment Green 7 were separately suspended in water and applied as a foliar spray to creeping bentgrass (variety Penncross) turf with a pressurized sprayer at a spray volume of 1.37 gallons of water per 1000 sq. ft. (ca. 560 l/ha).
# Treatments were applied at the following rates: • Aliette 4 oz/1000 sq. ft. (ca. 1.3 mL/m2) • Signature 4 oz/1000 sq. ft. (ca. 1.3 mL/m2) • Signature 8 oz/1000 sq. ft. (ca. 2.5 mL/m2) • Pigment 6.8 g/1000 sq. ft. (0.73 kg/ha) • Pigment 13.6 g/1000 sq. ft. (1.5 kg/ha)
# [6] = test system: creeping bentgrass (variety Penncross) turf; assay: Bentgrass color rating after foliar spray (Example 4); conditions: 6 weeks after treatment; iprodione 4 oz/1000 sq. ft.; Pigment Green 7 6.8 or 13.6 g/1000 sq. ft. in combination, 13.6 g alone
# Source text: Pigment Green 7 was suspended in water and applied as a foliar spray to creeping bentgrass (variety Penncross) turf with a pressurized sprayer at a spray volume of 1.37 gallons of water per 1000 sq. ft. (ca. 560 l/ha). Pigment Green 7 was applied at rates of 6.8, 13.9, and 20.4 grams per 1000 sq. ft. (0.73, 1.5, and 2.2 kg/ha, respectively). Each treatment was replicated 4 times. An untreated plot was included and was also replicated four times. The average color of the bentgrass was visually evaluated at 6 weeks after treatment. Color was evaluated on a qualitative scale from 1-9, with 9 being the highest quality and 1 the lowest quality.
# The procedure of Example 2 was repeated using iprodione fungicide (in the form of 26 GT brand iprodione fungicide) at 4 oz/1000 sq. ft. (ca. 1.3 mL/m2), iprodione at 4 oz/1000 sq. ft. (ca. 1.3 mL/m2) plus Pigment Green 7 at 6.8 g/1000 sq. ft. (0.73 kg/ha), iprodione at 4 oz/1000 sq. ft. plus Pigment Green 7 at 13.6 g/1000 sq. ft. (1.5 kg/ha), and Pigment Green 7 at 13.6 g/1000 sq. ft. (1.5 kg/ha). At 6 weeks after treatment, the color ratings were as follows.
# [7] = test system: Penncross creeping bentgrass; assay: Influence of foliar applied phthalocyanine pigment on creeping bentgrass photosynthesis (Example 9)
# Protocol: Studies carried out as a follow-up to Example 1 were conducted in 2005 to determine the influence of foliar applied phthalocyanine pigment on creeping bentgrass photosynthesis.
# “Penncross” creeping bentgrass plants were grown in a growth chamber on a sand soil in PVC tubes (10 cm in diameter) maintained at 20° C. Plants were maintained at a canopy height of approximately 5 cm and a nutrient solution was applied weekly to maintain adequate fertility. Four plants were treated with Pigment Green 7 at a rate of 6.92 g/1000 sq. ft. (0.74 kg/ha) (with 0.6% Tween 20 being added to keep the pigment on the leaves for better absorption) and four plants were left untreated to serve as the controls (being sprayed with water only). Photochemical efficiency, chlorophyll content, and single leaf net photosynthesis were measured at one, three, seven, and fourteen days after application. Different light intensities of 1500, 750, 500, 250, 150, 50, and 0 μmol m−2 s−1 of photosynthetically active radiation (PAR, 400-700 nm) were generated inside the leaf chamber by an LED light source to generate a light response curve. Net photosynthesis was measured as the rate of CO2 uptake φmol m−2s−1). […] Photosynthesis was higher from the first day after application and all subsequent sampling dates. […] However at intensities of from 50 to 1500 μmol photons m−2 s−1 treated plants were more efficient in utilizing the constant amount of light produced in the leaf chamber.
# [8] = 20° C., 6.92 g/1000 sq. ft. with 0.6% Tween 20, 1, 3, 7, 14 days after application
substance,measurement,setting,value
Pigment Green 7,Net photosynthetic rate (Pn),[1]; plants with pretreatment,higher with application of Pigment Green 7 and Signature fungicide than with application of Aliette fungicide and water
same,Net photosynthetic rate (Pn),[1]; plants without pretreatment,highest
same,Carotenoids content,[2],higher with application of Signature fungicide and Pigment Green 7 than with application of Aliette fungicide and water
same,Shoot growth rate in canopy height,[3],higher with application of Signature fungicide and Pigment Green 7 than with application of Aliette fungicide and water
same,Canopy biomass (dry weight),[4],higher with application of Signature fungicide and Pigment Green 7 than with application of Aliette fungicide and water
same,Roots biomass (dry weight),[4],higher with application of Signature fungicide and Pigment Green 7 than with application of Aliette fungicide and water
same,Color rating versus untreated check,[5],significantly different than the untreated check
same,Color rating versus untreated check,[6],significantly greener than the untreated
same,Light compensation point,[7]; 6.92 g/1000 sq. ft. foliar application,unaltered by treatment
same,"Photochemical efficiency (Fv/Fm), treated versus control plants",[7]; [8],No differences
same,"Total chlorophyll per gram of tissue, treated versus control plants",[7]; [8],no statistically significant differences
same,"Single leaf net photosynthesis (rate of CO2 uptake), treated versus control plants","[7]; all light intensities greater than 50 μmol photons m−2 s−1, 6.92 g/1000 sq. ft., from first day and all subsequent sampling dates",higher for treated plants compared to controls
same,Stability after foliar application (from higher net photosynthesis on every date),"[7]; on bentgrass leaves, 6.92 g/1000 sq. ft.",stable for at least fourteen days after foliar application
